US11179449B2, “Immunogenic preprocalcitonin peptides” (Institut Gustave Roussy, priority 2015, dated 2021)

Experiments:
[1] = system: PBMC of patients with non-small cell lung cancer (NSCLC); assay: In vitro stimulation of PBMC of NSCLC patients with 9- or 10-aa ppCT peptides, CD8+/IFNγ+ cells by flow cytometry; format: cell-based, human
Experimental: The peripheral blood mononuclear cells (PBMC) of 11 patients with non-small cell lung cancer (NSCLC) were isolated from the peripheral blood by Ficoll. For each peptide, the PBMC were stimulated twice (D0 and D7) with 20 μM of peptide. The PBMC were cultivated for 2 weeks on 96-well plates, at a rate of 20 million cells/plate, on complete medium (RPMI 1640, 10% SAB, 1% sodium pyruvate, 0.1% penicillin/[…]) in the presence of IL-2 (20 IU/ml)+IL-4 (10 ng/ml)+IL-7 (10 ng/ml).
After 15 days, the PBMC are again stimulated with 2.5 μM of the peptide used during the first stimulation step, in the presence of 100 μg/ml of Brefeldin A, and incubated for 6 hours at 37° C., 5% CO2. The cells are then incubated for 20 minutes with an anti-CD8-APC antibody, then washed in PBS, fixed with PBS-formaldehyde 2% and permeabilised by BSA/saponin. They are then incubated with an anti-IFN-γ-PE antibody. The analysis is carried out by flow cytometry. The statistical study is performed using the Mann-Whitney test and the statistically significant increases are indicated (*p<0.05; **p<0.01; ***p<0.005).

[2] = system: CD8 T lymphocytes expressing IFNγ (splenocytes); assay: Immunisation of HLA-A2 transgenic mice with peptide combinations, CD8+/IFNγ+ splenocytes by flow cytometry after ex vivo restimulation; format: in vivo, transgenic mice for the HLA-A2 molecules; details: splenocytes of immunised mice
Experimental: The transgenic mice for the HLA-A2 molecules were immunised 4 times (D0, D7, D14 and D21), under the skin on the flank, with 100 μl of peptide combinations containing an equimolar mixture of 100 μM of each of the peptides and an adjuvant (25 μg of Poly (I:C)) (FIG. 4). At 28 days after the first injection, the mice were sacrificed and the splenocytes were recovered and cultivated overnight in complete medium (RPMI 1640, 10% FBS, 1% sodium pyruvate, 0.1% penicillin/[…]) in the presence of IL-2 (20 IU/ml).
The next day, the splenocytes were stimulated with 2.5 μM of each of the peptides, alone or in combination, in the presence of 10 μg/ml of Brefeldin A and incubated for 6 hours at 37° C., 5% CO2. The cells are then incubated for 20 minutes with an anti-CD8-PE antibody, then washed in PBS, fixed with PBS-formaldehyde 2% and permeabilised with BSA/saponin. They are then incubated with an anti-IFNγ-APC antibody. The analysis is carried out by flow cytometry.

[3] = patients 4, 5 and 7 (respond only to these peptides)

CMLGTYTQDF (synthetic peptide ppCT91-100)
lymphocyte response after stimulation ([1]; patient 3): triggers a response

FLALSILVL (synthetic peptide ppCT9-17)
lymphocyte response after stimulation [1, 3]: trigger a lymphocyte response

LLAALVQDYV (synthetic peptide ppCT50-59)
lymphocyte response after stimulation ([1]; patient 3): triggers a response
lymphocyte response after stimulation [1, 3]: trigger a lymphocyte response
CD8 T lymphocyte response induced by the peptide alone on ex vivo stimulation [2]: strong response
